Reference: the supplement of paper PMC11451515

System: P12-Ichikawa
Test: cell viability relative to DMSO control; higher = less cytotoxic
Conditions: 48 h
In short: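 Three leukemia lines were tested: NOMO1 and SEM at 500 cells/well and P12-Ichikawa at 1000 cells/well. Each was adapted for at least four passages in each medium and seeded in 5 μl in 1536-well plates, and library compounds in DMSO were pin-dosed from 47 μM to 0.79 nM in 11 threefold steps. After 48 h at 37°C, CellTiter-Glo One luminescence was read. Viability is a percentage relative to DMSO wells on each plate, with cell-free wells as background.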

[1] = HPLM + 10% dialyzed FBS, 0.000781 µM
[2] = HPLM + 10% dialyzed FBS, 0.00234 µM
[3] = HPLM + 10% dialyzed FBS, 0.00702 µM
[4] = HPLM + 10% dialyzed FBS, 0.0211 µM
[5] = HPLM + 10% dialyzed FBS, 0.0632 µM
[6] = HPLM + 10% dialyzed FBS, 0.19 µM
[7] = HPLM + 10% dialyzed FBS, 0.569 µM
[8] = HPLM + 10% dialyzed FBS, 1.71 µM
[9] = HPLM + 10% dialyzed FBS, 5.12 µM
[10] = HPLM + 10% dialyzed FBS, 15.4 µM
[11] = HPLM + 10% dialyzed FBS, 46.1 µM
[12] = RPMI 5 mM glucose + 10% FBS, 0.000781 µM
[13] = RPMI 5 mM glucose + 10% FBS, 0.00234 µM
[14] = RPMI 5 mM glucose + 10% FBS, 0.00702 µM
[15] = RPMI 5 mM glucose + 10% FBS, 0.0211 µM
[16] = RPMI 5 mM glucose + 10% FBS, 0.0632 µM
[17] = RPMI 5 mM glucose + 10% FBS, 0.19 µM
[18] = RPMI 5 mM glucose + 10% FBS, 0.569 µM
[19] = RPMI 5 mM glucose + 10% FBS, 1.71 µM
[20] = RPMI 5 mM glucose + 10% FBS, 5.12 µM
[21] = RPMI 5 mM glucose + 10% FBS, 15.4 µM
[22] = RPMI 5 mM glucose + 10% FBS, 46.1 µM
[23] = RPMI 5 mM glucose + 10% dialyzed FBS, 0.000781 µM
[24] = RPMI 5 mM glucose + 10% dialyzed FBS, 0.00234 µM
[25] = RPMI 5 mM glucose + 10% dialyzed FBS, 0.00702 µM
[26] = RPMI 5 mM glucose + 10% dialyzed FBS, 0.0211 µM
[27] = RPMI 5 mM glucose + 10% dialyzed FBS, 0.0632 µM
[28] = RPMI 5 mM glucose + 10% dialyzed FBS, 0.19 µM
[29] = RPMI 5 mM glucose + 10% dialyzed FBS, 0.569 µM
[30] = RPMI 5 mM glucose + 10% dialyzed FBS, 1.71 µM
[31] = RPMI 5 mM glucose + 10% dialyzed FBS, 5.12 µM
[32] = RPMI 5 mM glucose + 10% dialyzed FBS, 15.4 µM
[33] = RPMI 5 mM glucose + 10% dialyzed FBS, 46.1 µM

Row | SMILES | cell viability [1] [%] | cell viability [2] [%] | cell viability [3] [%] | cell viability [4] [%] | cell viability [5] [%] | cell viability [6] [%] | cell viability [7] [%] | cell viability [8] [%] | cell viability [9] [%] | cell viability [10] [%] | cell viability [11] [%] | cell viability [12] [%] | cell viability [13] [%] | cell viability [14] [%] | cell viability [15] [%] | cell viability [16] [%] | cell viability [17] [%] | cell viability [18] [%] | cell viability [19] [%] | cell viability [20] [%] | cell viability [21] [%] | cell viability [22] [%] | cell viability [23] [%] | cell viability [24] [%] | cell viability [25] [%] | cell viability [26] [%] | cell viability [27] [%] | cell viability [28] [%] | cell viability [29] [%] | cell viability [30] [%] | cell viability [31] [%] | cell viability [32] [%] | cell viability [33] [%]
1 | CCCC1OC2C[C@H]3[C@@H]4CCC5=CC(=O)C=C[C@]5(C)[C@H]4C(O)C[C@]3(C)[C@]2(C(=O)CO)O1 (stereo not given in full) | 114 | 120 | 109 | 95.8 | 79 | 68.7 | 67.3 | 64 | 64.9 | 60 | 49 | 116 | 114 | 99.1 | 90 | 70.6 | 57.8 | 57.6 | 50.1 | 51.2 | 51.3 | 39.7 | 116 | 108 | 90.4 | 76.7 | 60 | 47.5 | 44.1 | 43 | 42 | 37.5 | 28.4
2 | Cc1c[nH]c(-c2cnc(NCCNc3ccc(C#N)cn3)nc2-c2ccc(Cl)cc2Cl)n1 | 75.2 | 83.3 | 80.6 | 88.1 | 87.7 | 88.9 | 88.3 | 94.3 | 91.2 | 91.1 | 16.4 | 67.6 | 82.5 | 77.7 | 78.7 | 79.9 | 80.6 | 78.9 | 83.5 | 75 | 89.1 | 24.8 | 75.1 | 85.3 | 80.2 | 80 | 81 | 82.2 | 78.8 | 80.6 | 84.1 | 92.9 | 29.9
3 | COc1cc(/C=C/C(=O)O)ccc1O | 89.1 | 93 | 91.4 | 104 | 95.7 | 102 | 107 | 99 | 103 | 106 | 107 | 90.9 | 88.5 | 91.9 | 84.4 | 88.5 | 92 | 99.4 | 88.4 | 79.1 | 97.1 | 101 | 88.1 | 89.8 | 88.7 | 94.1 | 91.5 | 91.1 | 96.3 | 93.5 | 91.1 | 94.1 | 99
4 | Nc1nc(Cl)nc2c1ncn2[C@@H]1O[C@H](CO)[C@@H](O)[C@@H]1F | 18.2 | 55.1 | 15.7 | 16.3 | 18.8 | 15.4 | 15.2 | 11.8 | 13.5 | 10.6 | 8.95 | 32.2 | 50 | 15.6 | 14.8 | 16.3 | 13.6 | 10.6 | 9.04 | 8.02 | 9.03 | 5.68 | 28.4 | 37.2 | 24.4 | 23.5 | 24.7 | 24.6 | 21.2 | 24.3 | 19 | 20.3 | 17.5
5 | OCc1ccc(-c2ccc(-c3ccc(CO)s3)o2)s1 | 116 | 116 | 106 | 116 | 101 | 105 | 102 | 106 | 98 | 97.8 | 87.3 |  |  |  |  |  |  |  |  |  |  |  | 118 | 123 | 130 | 125 | 118 | 109 | 104 | 95.4 | 96.3 | 91 | 78.6
6 | CCOc1ccc(Cc2cc([C@@H]3O[C@H](CO)[C@@H](O)[C@H](O)[C@H]3O)ccc2Cl)cc1 | 123 | 124 | 120 | 84.8 | 125 | 134 | 129 | 123 | 127 | 126 | 123 |  |  |  |  |  |  |  |  |  |  |  |  |  |  |  |  |  |  |  |  |  | 
